Here are results for 30 compounds from patent US12110299B2, “Thiazole derivatives and pharmaceutically acceptable salts thereof” (YUNGJIN PHARM. CO., LTD., priority 2018, dated 2024).

Experiment [1] deals with MDA-MB-468 cells. The experiment can be described thus: Anti-proliferative effect on MDA-MB-468 cells, inhibition rate at 100 nM (tetrazolium salt method). The format is cell-based. The following applies: Homo sapiens, 72 hours.
Method: Representative compounds of the present invention were tested at different concentrations (from 1000 nM to 25 nM) to assess their ability to inhibit the proliferation of MDA-MB-468 cells. Cells were grown in RPMI 1640 (Welgene)+10% FBS (Gibco)+1% penicillin/streptomycin (Gibco) and cultured at 37° C. in a humidified chamber in the presence of 5% CO2.
MDA-MB-468 cells cultured in 96-well cell culture plates were treated with representative compounds of the present invention and cultured for 72 hours.
Experiment [2] deals with MDA-MB-468 cells. The experiment can be described thus: Anti-proliferative effect on MDA-MB-468 cells, IC50 (MTT). The class given is cell-based. The note with it: Homo sapiens, MDA-MB-468, 72 h.
Method: The compounds of the present invention were tested at different concentrations (from 1000 nM to 1 nM) to assess their ability for inhibiting the proliferation of MDAMB-468 cells. Cells were cultivated in RPMI 1640 (Welgene)+10% FBS (Gibco)+1% penicillin/streptomycin (Gibco) and cultured at 37° C. in a humidified chamber in the presence of 5% C02.
MDA-MB-468 cells cultured in 96-well cell culture plates were treated with the compounds of the present invention and incubated for 72 hours.
Another experiment has as its system HepG2 cells. Briefly: HepG2 cell viability assay (CCK-8). The format is cell-based, human. The note with it: Homo sapiens, HepG2, 72 h. As for the experimental part: The ability to inhibit the proliferation of HepG2 cells, which are human hepatocellular carcinoma cells, was measured through the in vitro cell viability assay. Cells were cultured at 37° C. in a humidified condition in the presence of 5% CO2 using a culture medium of MEM (Welgene)+10% FBS (Gibco)+1% penicillin/streptomycin (Gibco). […] Cell viability was measured by CCK-8 method using tetrazolium salt, and the ability of the compounds according to the present invention to inhibit cancer cell proliferation was calculated.

On to `C=CC(=O)Nc1ccc(-c2cccc(C(C)C(=O)Nc3ncc(C)s3)c2)cn1` (stereo not shown) [Example 1, N-(5-(3-(1-((5-methylthiazol-2-yl)amino)-1-oxopropan-2-yl)phenyl)pyridin-2-yl)acrylamide], for which the inhibition (usually the change of the read-out against control, counted positive when it falls) at 0.1 µM in the experiment with MDA-MB-468 cells [1] stood at 54%. On the same count and under the same terms, under `C=CC(=O)Nc1ccc(-c2cccc(C(C)C(=O)Nc3ncc(CC)s3)c2)cn1` (stereo not shown) [Example 4, N-(5-(3-(1-((5-ethylthiazol-2-yl)amino)-1-oxopropan-2-yl)phenyl)pyridin-2-yl)acrylamide] stands 56%; under `C=CC(=O)Nc1ccc(-c2ccc(F)c(C(C)C(=O)Nc3ncc(C#N)s3)c2)nn1` (stereo not shown) [Example 11, N-(6-(3-(1-((5-cyanothiazol-2-yl)amino)-1-oxopropane-2-yl)-4-fluorophenyl)pyridazin-3-yl)acrylamide], 53%; under `C=CC(=O)Nc1cncc(-c2cccc([C@H](C)C(=O)Nc3ncc(C4CC4)s3)c2)n1` [Example 16], 53%. On the same count and under the same terms, under `C=CC(=O)Nc1cnc(-c2cccc([C@H](C)C(=O)Nc3ncc(C4CC4)s3)c2)cn1` [Example 22] stands 72%; under `C=CC(=O)Nc1cnc(-c2cccc([C@H](C)C(=O)Nc3ncc(C#N)s3)c2)cn1` [Example 25, (S)-N-(5-(3-(1-((5-cyanothiazol-2-yl)amino)-1-oxopropan-2-yl)phenyl)pyrazin-2-yl)acrylamide], 71%.

With `C=CC(=O)Nc1ncc(-c2cccc([C@H](C)C(=O)Nc3ncc(C4CC4)s3)c2)cn1` [Example 27], the inhibition at 0.1 µM with MDA-MB-468 cells [1] came to 74%. On the same count and under the same terms, the result for `C=CC(=O)Nc1ccc(-c2cccc([C@H](C)C(=O)Nc3ncc(C4CC4)s3)c2)nn1` [Example 28] reads 74%; that for `C=CC(=O)Nc1ncc(-c2cccc([C@H](C)C(=O)Nc3ncc(C4CC4)s3)c2)cc1F` [Example 29], 75%. Still for that read-out and setting: the result for `C=CC(=O)Nc1ncc(-c2cccc([C@H](C)C(=O)Nc3ncc(C#N)s3)c2)cc1F` [Example 33, (S)-N-(5-(3-(1-((5-cyanothiazol-2-yl)amino)-1-oxopropan-2-yl)phenyl)-3-fluoropyridin-2-yl)acrylamide] reads 59%; that for `C=CC(=O)Nc1cnc(-c2cccc([C@H](C)C(=O)Nc3ncc(C(C)C)s3)c2)cn1` [Example 36, (S)-N-(5-(3-(1-((5-isopropylthiazol-2-yl)amino)-1-oxopropan-2-yl)phenyl)pyrazin-2-yl)acrylamide], 64%.

Take `C=CC(=O)Nc1ccc(-c2cccc([C@H](C)C(=O)Nc3ncc(C(F)(F)F)s3)c2)cn1` [Example 38, (S)-N-(5-(3-(1-oxo-1-((5-(trifluoromethyl)thiazol-2-yl)amino)propan-2-yl)phenyl)pyridin-2-yl)acrylamide]: in the experiment with MDA-MB-468 cells [1], the inhibition at 0.1 µM came to 64%.

In the case of `C=CC(=O)Nc1ccc(-c2cccc([C@H](C)C(=O)Nc3ncc(C(F)(F)F)s3)c2)nn1` [Example 39, (S)-N-(6-(3-(1-oxo-1-((5-(trifluoromethyl)thiazol-2-yl)amino)propan-2-yl)phenyl)pyridazin-3-yl)acrylamide], in the experiment on MDA-MB-468 cells [1], the inhibition at 0.1 µM is 67%. In the case of `C=CC(=O)Nc1ccc(-c2cccc([C@H](C)C(=O)Nc3ncc(C(C)C)s3)c2)nn1` [Example 40, (S)-N-(6-(3-(1-((5-isopropylthiazol-2-yl)amino)-1-oxopropan-2-yl)phenyl)pyridazin-3-yl)acrylamide], the inhibition at 0.1 µM with MDA-MB-468 cells [1] is 64%. The same measure, in the same setting: the result for `C=CC(=O)Nc1cnc(-c2cncc(C(C)C(=O)Nc3ncc(C(C)C)s3)c2)cn1` (stereo not shown) [Example 47, N-(5-(5-(1-((5-isopropylthiazol-2-yl)amino)-1-oxopropan-2-yl)pyridin-3-yl)pyrazin-2-yl) acrylamide] reads 72%. `C=CC(=O)Nc1ccc(-c2cncc(C(C)C(=O)Nc3ncc(C(F)(F)F)s3)c2)nn1` (stereo not shown) [Example 49, N-(6-(5-(1-oxo-1-((5-(trifluoromethyl)thiazol-2-yl)amino)propan-2-yl)pyridin-3-yl)pyridazin-3-yl)acrylamide]: in the experiment on MDA-MB-468 cells [1], the inhibition at 0.1 µM amounted to 67%. On the same count and under the same terms, the result for `C=CC(=O)Nc1ccc(-c2cc(C(C)C(=O)Nc3ncc(C4CC4)s3)ccn2)cn1` (stereo not shown) [Example 50, N-(4-(1-((5-cyclopropylthiazol-2-yl)amino)-1-oxopropan-2-yl)-[2,3′-bipyridine]-6′-yl)acrylamide] reads 66%.

`COc1nc(-c2cccc([C@H](C)C(=O)Nc3ncc(C(F)(F)F)s3)c2)cnc1NC(=O)/C=C/CN(C)C` [Example 109, (S,E)-4-(dimethylamino)-N-(3-methoxy-5-(3-(1-oxo-1-((5-(trifluoromethyl)thiazol-2-yl)amino)propan-2-yl)phenyl)pyrazin-2-yl)but-2-enamide]: the IC50 (commonly the concentration at which inhibition is half-maximal) in the experiment on MDA-MB-468 cells [2] came out at 31 nM; with HepG2 cells it was 2.6 nM. As to `C[C@H](C(=O)Nc1ncc(C(F)(F)F)s1)c1cccc(-c2cnc3c(c2)CCN3C(=O)/C=C/CN(C)C)c1` [Example 110, (S,E)-2-(3-(1-(4-(dimethylamino)but-2-enoyl)-2,3-dihydro-1H-pyrrolo[2,3-b]pyridin-5-yl)phenyl)-N-(5-(trifluoromethyl)thiazol-2-yl)propanamide], the IC50 in the experiment on MDA-MB-468 cells [2] stood at 74 nM; in the experiment on HepG2 cells, 17.4 nM. On the same counts, the results for `C[C@H](C(=O)Nc1ncc(C(F)(F)F)s1)c1cccc(-c2cnc(NC(=O)/C=C/CN(C)C)c(C(F)(F)F)c2)c1` [Example 111, (S,E)-4-(dimethylamino)-N-(5-(3-(1-oxo-1-((5-(trifluoromethyl)thiazol-2-yl)amino)propan-2-yl)phenyl)-3-(trifluoromethyl)pyridin-2-yl)but-2-enamide] are 32 nM and 4 nM.

`Cc1cc(-c2cccc([C@H](C)C(=O)Nc3ncc(C(F)(F)F)s3)c2)cnc1NC(=O)/C=C/CN(C)C` [Example 112, (S,E)-4-(dimethylamino)-N-(3-methyl-5-(3-(1-oxo-1-((5-(trifluoromethyl)thiazol-2-yl)amino)propan-2-yl)phenyl)pyridin-2-yl)but-2-enamide]: the IC50 in the experiment on MDA-MB-468 cells [2] turned out to be 59 nM; in the experiment on HepG2 cells, 8.7 nM.

For `C[C@H](C(=O)Nc1ncc(C(F)(F)F)s1)c1cccc(-c2cnc(NC(=O)/C=C/CN(C)C)c(Cl)c2)c1` [Example 113, (S,E)-N-(3-chloro-5-(3-(1-oxo-1-((5-(trifluoromethyl)thiazol-2-yl)amino)propan-2-yl)phenyl)pyridin-2-yl)-4-(dimethylamino)but-2-enamide], the IC50 in the experiment on MDA-MB-468 cells [2] was 35 nM; in the experiment with HepG2 cells, 4.2 nM. On to `CCN(CC)C/C=C/C(=O)Nc1cnc(-c2cccc([C@H](C)C(=O)Nc3ncc(C(F)(F)F)s3)c2)cn1` [Example 114, (S,E)-4-(diethylamino)-N-(5-(3-(1-oxo-1-((5-(trifluoromethyl)thiazol-2-yl)amino)propan-2-yl)phenyl)pyrazin-2-yl)but-2-enamide], for which the values for the IC50 in the experiment with MDA-MB-468 cells [2] and with HepG2 cells were 56 nM and 12 nM, respectively. For `C[C@H](C(=O)Nc1ncc(C(F)(F)F)s1)c1cccc(-c2cnc(NC(=O)/C=C/CN3CC[C@@H](F)C3)cn2)c1` [Example 115, (E)-4-((R)-3-fluoropyrrolidin-1-yl)-N-(5-(3-((S)-1-oxo-1-((5-(trifluoromethyl)thiazol-2-yl)amino)propan-2-yl)phenyl)pyrazin-2-yl)but-2-enamide], in that order: 75 nM and 12 nM.

On to `CCc1cnc(NC(=O)[C@@H](C)c2cccc(-c3cnc4c(c3)CCN4C(=O)/C=C/CN(C)C)c2)s1` [Example 122, (S,E)-2-(3-(1-(4-(dimethylamino)but-2-enoyl)-2,3-dihydro-1H-pyrrolo[2,3-b]pyridin-5-yl)phenyl)-N-(5-ethylthiazol-2-yl)propanamide], for which the IC50 with MDA-MB-468 cells [2] amounted to 34 nM; in the experiment on HepG2 cells it was 38 nM. Take `CCc1cnc(NC(=O)[C@@H](C)c2cccc(-c3cnc(NC(=O)/C=C/CN4CC5CC4CO5)c(C#N)c3)c2)s1` (stereo partly drawn) [Example 123, (E)-4-(2-oxa-5-azabicyclo[2.2.1]heptan-5-yl)-N-(3-cyano-5-(3-((S)-1-((5-ethylthiazol-2-yl)amino)-1-oxopropan-2-yl)phenyl)pyridin-2-yl)but-2-enamide]: the IC50 turned out to be 24 nM in the experiment on MDA-MB-468 cells [2] and 11 nM in the experiment with HepG2 cells. As to `CCc1cnc(NC(=O)[C@@H](C)c2cccc(-c3cnc(N(C)C(=O)/C=C/CN(C)C)c(C#N)c3)c2)s1` [Example 132, (S,E)-N-(3-cyano-5-(3-(1-((5-ethylthiazol-2-yl)amino)-1-oxopropan-2-yl)phenyl)pyridin-2-yl)-4-(dimethylamino)-N-methylbut-2-enamide], the IC50 is 32 nM in the experiment on MDA-MB-468 cells [2] and 9.5 nM with HepG2 cells.

As for `CCc1cnc(NC(=O)[C@@H](C)c2cccc(-c3cnc(NC(=O)/C=C/CN4CCOCC4)c(C#N)c3)c2)s1` [Example 135, (S,E)-N-(3-cyano-5-(3-(1-((5-ethylthiazol-2-yl)amino)-1-oxopropan-2-yl)phenyl)pyridin-2-yl)-4-morpholinobut-2-enamide], the results for the 50% inhibitory concentration (IC50) in the experiment with MDA-MB-468 cells [2] and in the experiment with HepG2 cells were 48 nM and 10 nM, respectively. `CCc1cnc(NC(=O)C(C)c2cncc(-c3cnc(NC(=O)/C=C/CN(C)C)c(C#N)c3)c2)s1` (stereo not shown) [Example 137, (E)-N-(5-cyano-5′-(1-((5-ethylthiazol-2-yl)amino)-1-oxopropan-2-yl)-[3,3′-bipyridin]-6-yl)-4-(dimethylamino)but-2-enamide]: the IC50 in the experiment on MDA-MB-468 cells [2] amounted to 47 nM; in the experiment with HepG2 cells, 18 nM.

Take `CCc1cnc(NC(=O)C(CC)c2cccc(-c3cnc(NC(=O)/C=C/CN(C)C)c(C#N)c3)c2)s1` (stereo not shown) [Example 138, (E)-N-(3-cyano-5-(3-(1-((5-ethylthiazol-2-yl)amino)-1-oxobutan-2-yl)phenyl)pyridin-2-yl)-4-(dimethylamino)but-2-enamide]: the IC50 was 100 nM with MDA-MB-468 cells [2] and 52 nM with HepG2 cells.
